Key:
Type in all cases: physicochemical
[1] = Degree of order S in nematic broad-range mixture (dichroic ratio, homogeneous edge orientation, ground PVA cells); details: room temperature
Experimental: The degree of order S was determined using the conventional equation [formula] the measurement being carried out in commercial measuring cells with a homogeneous edge orientation (ground PVA). The dichroic ratio CR was determined by measuring the extinctions E" (measurement with light polarized parallel to the preferred direction of the nematic phase) and E^.perp. (measurement with light polarized perpendicular to the preferred direction of the nematic phase) and using the relationship CR=E"/E^.perp. the dye concentration being chosen so that E" was from 1 to 2. The measurements were carried out in a Beckmann Acta CIII spectrophotometer.

[2] = Solubility L in liquid crystal mixture (saturated solution, comparison of extinction); details: room temperature, percentages by weight unless stated otherwise
[3] = Light stability: high-speed exposure of the measuring cell in a Suntest from Hanau; details: 25° C., at the stated λmax
Experimental: The light stability was determined by high-speed exposure of the measuring cell in a Suntest from Hanau, at 25° C. In this procedure, the decrease in E" was measured. […] E" was determined at the stated λmax values.

[4] = ZLI 1840 (Merck), 1 week stirring

In the case of `Cc1cc(OCc2cc(C(C)(C)C)cc(C(C)(C)C)c2)ccc1N=Nc1ccc(N=Nc2ccc(N=Nc3ccc(OCc4cc(C(C)(C)C)cc(C(C)(C)C)c4)cc3C)cc2)cc1` [Example 11], the “Degree of order S” value ([1]; ZLI 1957/5 (Merck)) is reported as 0.76 and the “Solubility L” value ([2]; ZLI 1957/5 (Merck)) is reported as 0.7%.

For `CCCCCc1ccc(COc2cc(C)c(N=Nc3ccc(N=Nc4ccc(N=Nc5c(C)cc(OCc6ccc(CCCCC)cc6)cc5C)cc4)cc3)c(C)c2)cc1` [Example 16], the “Degree of order S” value ([1]; ZLI 1957/5 (Merck)) was 0.80 and the “Solubility L” value ([2]; ZLI 1957/5 (Merck)) was 3%.

With `Cc1cc(OCc2ccc(C(C)(C)C)cc2)ccc1N=Nc1ccc(N=Nc2ccc(N=Nc3ccc(OCc4ccc(C(C)(C)C)cc4)cc3C)cc2)cc1` [Example 4] the “Degree of order S” value ([1]; ZLI 1840 (Merck)) was 0.75 and the “Solubility L” value [2, 4] was 0.3%.

In the case of `Cc1cc(C)c(COc2ccc(N=Nc3ccc(N=Nc4ccc(N=Nc5ccc(OCc6c(C)cc(C)cc6C)cc5C)cc4)cc3)c(C)c2)c(C)c1` [Example 3], the “Degree of order S” value ([1]; ZLI 1840 (Merck)) is reported as 0.77, the “E80% " (exposure time after which E"o has decreased to 80%)” value [3] is reported as 110 h and the “Eo " (initial extinction)” value [3] is reported as 1.95. For the same compound, the “Solubility L” value [2, 4] was 1.0%.

For `CCCCCC1CCC(c2ccc(COc3ccc(N=Nc4ccc(N=Nc5ccc(N=Nc6ccc(O)cc6C)cc5)cc4)c(C)c3)cc2)CC1` (centres unmarked) [Example 5], the “Degree of order S” value ([1]; ZLI 1840 (Merck)) was 0.79, the “E80% " (exposure time after which E"o has decreased to 80%)” value [3] was 70 h and the “Eo " (initial extinction)” value [3] was 1.23. For the same compound, the “Solubility L” value [2, 4] was 1.9%.

With `CCCCCC1CCC(c2ccc(COc3cc(C)c(N=Nc4ccc(N=Nc5ccc(N=Nc6c(C)cc(OCc7ccc(C8CCC(CCCCC)CC8)cc7)cc6C)cc5)cc4)c(C)c3)cc2)CC1` (centres unmarked) [Example 17] the “Degree of order S” value ([1]; ZLI 1957/5 (Merck)) was 0.81 and the “Solubility L” value ([2]; ZLI 1957/5 (Merck)) was 0.2%.

For `CCCCCC1CCC(c2ccc(COc3ccc(N=Nc4ccc(N=Nc5ccc(N=Nc6ccc(OCc7ccc(C8CCC(CCCCC)CC8)cc7)cc6C)cc5)cc4)c(C)c3)cc2)CC1` (centres unmarked) [Example 9], the “Degree of order S” value ([1]; ZLI 1840 (Merck)) was 0.81, the “E80% " (exposure time after which E"o has decreased to 80%)” value [3] was 140 h and the “Eo " (initial extinction)” value [3] was 1.51. For the same compound, the “Solubility L” value [2, 4] was 0.8%.

With `Cc1cc(O)ccc1N=Nc1ccc(N=Nc2ccc(N=Nc3ccc(OCc4ccccc4)cc3C)cc2)cc1` [Example 1, 4-(2-methyl-4-hydroxyphenylazo)-4'-(2-methyl-4-benzyloxyphenylazo)-azobenzene] the “Degree of order S” value ([1]; ZLI 1840 (Merck)) was 0.75 and the “Solubility L” value [2, 4] was 0.9%.

In the case of `CCCCC1CCC(c2ccc(COc3ccc(N=Nc4ccc(N=Nc5ccc(N=Nc6ccc(OCc7ccc(C8CCC(CCCC)CC8)cc7)cc6C)cc5)cc4)c(C)c3)cc2)CC1` (centres unmarked) [Example 8], the “Degree of order S” value ([1]; ZLI 1840 (Merck)) is reported as 0.79 and the “Solubility L” value [2, 4] is reported as 0.3%.

With `CCCCCc1ccc(COc2ccc(N=Nc3ccc(N=Nc4ccc(N=Nc5ccc(OCc6ccc(CCCCC)cc6)cc5C)cc4)cc3)c(C)c2)cc1` [Example 10] the “Degree of order S” value ([1]; ZLI 1957/5 (Merck)) was 0.81 and the “Solubility L” value ([2]; ZLI 1957/5 (Merck)) was 1.2%.

— patent publication US4724259A, “Azo dyes and liquid-crystalline materials containing these dyes” (BASF Aktiengesellschaft, priority 1983, dated 1988)
